ChEMBL document CHEMBL1641476, “Tetrahydroquinoline derivatives as opioid receptor antagonists” (Bioorg Med Chem Lett, 2011)

Key:
[1] = biological target: Delta-type opioid receptor (Homo sapiens, UniProt P41143); test: Antagonist activity at human delta opioid receptor expressed in CHO cells assessed as [35S]GTPgammaS binding by SPA; type: functional, cell-based
[2] = biological target: Kappa-type opioid receptor (Homo sapiens, UniProt P41145); test: Antagonist activity at human kappa opioid receptor expressed in CHO cells assessed as [35S]GTPgammaS binding by SPA; type: functional, cell-based
Mu-type opioid receptor = Mu-type opioid receptor (Homo sapiens, UniProt P35372); test: Antagonist activity at human mu opioid receptor expressed in CHO cells assessed as [35S]GTPgammaS binding by SPA; type: functional, cell-based
Rattus norvegicus = test: Ratio of drug level in po dosed Long-Evans rat; type: ADME, organism-based; settings: in vivo
[3] = Oral bioavailability in Long-Evans rat; type: ADME, organism-based; settings: in vivo
[4] = Volume of distribution at steady state in iv dosed Long-Evans rat; type: ADME, organism-based; settings: in vivo, read-out: Vdss
[5] = Half life in iv dosed Long-Evans rat; type: ADME, organism-based; settings: in vivo
[6] = Clearance in iv dosed Long-Evans rat; type: ADME, organism-based; settings: in vivo

Mu-type opioid receptor, sequence (P35372 whole entry): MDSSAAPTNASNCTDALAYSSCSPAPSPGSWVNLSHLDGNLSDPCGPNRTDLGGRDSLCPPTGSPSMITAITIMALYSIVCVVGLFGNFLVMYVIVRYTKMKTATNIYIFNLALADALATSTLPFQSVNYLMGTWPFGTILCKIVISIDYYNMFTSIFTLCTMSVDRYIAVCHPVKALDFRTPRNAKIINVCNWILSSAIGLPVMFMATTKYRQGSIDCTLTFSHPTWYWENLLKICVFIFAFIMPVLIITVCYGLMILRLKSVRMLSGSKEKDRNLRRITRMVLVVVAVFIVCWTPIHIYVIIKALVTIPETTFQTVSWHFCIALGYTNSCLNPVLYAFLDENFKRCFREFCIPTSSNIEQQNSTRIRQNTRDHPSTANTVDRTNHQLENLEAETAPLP
Delta-type opioid receptor, sequence (P41143 whole entry): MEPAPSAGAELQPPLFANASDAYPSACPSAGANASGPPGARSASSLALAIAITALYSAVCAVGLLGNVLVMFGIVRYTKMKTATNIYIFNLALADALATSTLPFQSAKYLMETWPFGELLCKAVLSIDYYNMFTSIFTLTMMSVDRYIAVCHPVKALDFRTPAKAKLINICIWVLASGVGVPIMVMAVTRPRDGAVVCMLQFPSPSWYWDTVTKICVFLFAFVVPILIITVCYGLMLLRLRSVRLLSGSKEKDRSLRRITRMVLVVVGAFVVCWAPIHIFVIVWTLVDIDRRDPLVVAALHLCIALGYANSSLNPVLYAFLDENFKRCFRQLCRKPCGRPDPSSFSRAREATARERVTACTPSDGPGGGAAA
Kappa-type opioid receptor, sequence (P41145 whole entry): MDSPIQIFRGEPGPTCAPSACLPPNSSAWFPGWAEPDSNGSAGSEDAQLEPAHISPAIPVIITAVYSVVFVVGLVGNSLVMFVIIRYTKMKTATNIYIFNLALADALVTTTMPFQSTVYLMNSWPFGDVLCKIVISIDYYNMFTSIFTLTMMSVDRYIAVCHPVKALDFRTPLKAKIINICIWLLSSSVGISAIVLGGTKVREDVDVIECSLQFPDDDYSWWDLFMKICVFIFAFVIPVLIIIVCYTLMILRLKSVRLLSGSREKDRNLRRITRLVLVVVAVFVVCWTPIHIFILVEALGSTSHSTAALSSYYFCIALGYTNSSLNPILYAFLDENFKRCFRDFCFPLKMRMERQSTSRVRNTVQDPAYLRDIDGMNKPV

SMILES | Ki [1] | Ki [2] | Ki (Mu-type opioid receptor) | Ratio (Rattus norvegicus) | bioavailability [3] | Vd [4] | half-life [5] | clearance [6]
CC(C)CCNCc1ccc(N2CCCc3cc(C(N)=O)ccc32)cc1 | 316 nM | 501 nM | 79.4 nM | – | – | – | – | –
CC(C)CNCc1ccc(N2CCCc3cc(C(N)=O)ccc32)cc1 | > 3980 nM | 1260 nM | 631 nM | – | – | – | – | –
NC(=O)c1ccc2c(c1)CCCN2c1ccc(CNCC2CCCCC2)cc1 | 398 nM | 316 nM | 39.8 nM | – | – | – | – | –
CCCCCNCc1ccc(N2CCCc3cc(C(N)=O)ccc32)cc1 | 251 nM | 1000 nM | 50.1 nM | – | – | – | – | –
NC(=O)c1ccc2c(c1)CCCN2c1ccc(CNCCc2cccs2)cc1 | 316 nM | 631 nM | 25.1 nM | – | – | – | – | –
CC1(C)CCC(NCc2ccc(N3CCCc4cc(C(N)=O)ccc43)cc2)CC1 | 50.1 nM | 63.1 nM | 10 nM | – | – | – | – | –
NC(=O)c1ccc2c(c1)CCCN2c1ccc(CNC2Cc3ccccc3C2)cc1 | 39.8 nM | 25.1 nM | 5.01 nM | – | – | – | – | –
NC(=O)c1ccc2c(c1)CCCN2c1ccc(CNC2Cc3ccc(F)cc3C2)cc1 (stereo not drawn) | 79.4 nM | 126 nM | 12.6 nM | – | – | – | – | –
NC(=O)c1ccc2c(c1)CCCN2c1ccc(CNC2Cc3ccccc3C2)c(F)c1 | 100 nM | 200 nM | 7.94 nM | – | – | – | – | –
Cc1cc(CNC2Cc3ccccc3C2)ccc1N1CCCc2cc(C(N)=O)ccc21 | 12.6 nM | 20 nM | 1.58 nM | – | – | – | – | –
C1=C(CCNCc2ccc(N3CCCc4ccccc43)cc2)CCCC1 | > 3980 nM | > 3980 nM | 398 nM | – | – | – | – | –

Results, then the compound that gave them:

Ki [1] | Ki [2] | Ki (Mu-type opioid receptor) | Ratio (Rattus norvegicus) | bioavailability [3] | Vd [4] | half-life [5] | clearance [6] | SMILES
316 nM | 251 nM | 50.1 nM | – | – | – | – | – | CC(C)(C)CCNCc1ccc(N2CCCc3cc(C(N)=O)ccc32)cc1
158 nM | 316 nM | 25.1 nM | 0.1 | 33% | 1.5 L/kg | 5.34 h | 26.5 mL/min/kg | NC(=O)c1ccc2c(c1)CCCN2c1ccc(CNCCC2=CCCCC2)cc1
398 nM | 631 nM | 100 nM | – | – | – | – | – | NC(=O)c1ccc2c(c1)CCCN2c1ccc(CNCc2cccc(F)c2)cc1
251 nM | 794 nM | 31.6 nM | – | – | – | – | – | NC(=O)c1ccc2c(c1)CCCN2c1ccc(CNCCc2cccc(F)c2)cc1
316 nM | 251 nM | 126 nM | – | – | – | – | – | NC(=O)c1ccc2c(c1)CCCN2c1ccc(CNCCC2CCOCC2)cc1
> 3980 nM | > 3980 nM | > 3980 nM | – | – | – | – | – | NC(=O)c1ccc2c(c1)CCCN2c1ccc(CNC2CCN(C3CCOCC3)CC2)cc1
200 nM | 1260 nM | 50.1 nM | – | – | – | – | – | NC(=O)c1ccc2c(c1)CCCN2c1cccc(CNCCC2=CCCCC2)c1
1580 nM | > 3980 nM | 2000 nM | – | – | – | – | – | NC(=O)c1ccc2c(c1)CCCN2c1cccc(C(=O)NCCC2=CCCCC2)c1
158 nM | 158 nM | 7.94 nM | – | – | – | – | – | Cc1cc(N2CCCc3cc(C(N)=O)ccc32)ccc1CNC1Cc2ccccc2C1
316 nM | 631 nM | 25.1 nM | – | – | – | – | – | NC(=O)c1ccc2c(c1)CCCN2c1cc(F)c(CNC2Cc3ccccc3C2)c(F)c1
63.1 nM | 631 nM | 50.1 nM | – | – | – | – | – | NC(=O)c1ccc2c(c1)CCCN2c1ccc(CNC2Cc3ccccc3C2)c(C(F)(F)F)c1
100 nM | 200 nM | 15.8 nM | – | – | – | – | – | NC(=O)c1ccc2c(c1)CCCN2c1ccc(CNC2Cc3ccccc3C2)c(Cl)c1
100 nM | 200 nM | 12.6 nM | – | – | – | – | – | Cc1cc(CNCCC2=CCCCC2)ccc1N1CCCc2cc(C(N)=O)ccc21
501 nM | 631 nM | 100 nM | – | – | – | – | – | Cc1cc(N2CCCc3cc(C(N)=O)ccc32)ccc1CNCCC1=CCCCC1
> 3980 nM | > 3980 nM | > 3160 nM | – | – | – | – | – | O=C(O)c1ccc2c(c1)CCCN2c1ccc(CNCCC2=CCCCC2)cc1
